Values quoted from earlier work in patent US20190208766A1, “COMPOSITION FOR THE CONSERVATION/FIXATION OF BIOLOGICAL MATERIAL” (priority 2016, published 2019).

System: airways
Settings: in vivo

C=O [formaldehyde]
concentration causing sense of suffocation: greater than 10 ppm | exposure that can lead to pulmonary edema: greater than 20 ppm
